The numbers were not newly measured in patent US9169245B2, “Inhibitors of PDE4 enzyme and antagonists of muscarinic M3 receptor” (CHIESI FARMACEUTICI S.p.A., priority 2012, dated 2015), which cites them from elsewhere.

SMILES strings stand for the structures.

The conditions of data set [1]: patients with severe disease, frequent exacerbations and mucus hypersecretion.
The conditions of data set [2]: COPD patients, oral, given over 4 weeks.

With `O=C(Nc1c(Cl)cncc1Cl)c1ccc(OC(F)F)c(OCC2CC2)c1` [roflumilast], in data set [1], the “improvement of FEV 1” value was “approximately 50 ml” and the reduction of exacerbation result is “about 15%”. Also, the “reduction of the numbers of neutrophils in sputum” value in data set [2] was 36%.
